Assay results: ChEMBL document CHEMBL1201862, “PubChem BioAssay data set” (2004)
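How tested: cells in 96-well plates exposed to compound for 48 hours at five concentrations. The concentration for 50% growth inhibition is given as GI50.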 Active and inactive are the calls of the source. Cut-off read from the data, not from the text of the source: active = GI50 up to about 1.1 µM and inactive = higher.

How the values were obtained:
Experiment in all cases: DTP human tumour cell line panel, 48 h
BT-549 = system: BT-549
CAKI-1 = system: CAKI-1
HCT-15 = system: HCT-15
HT-29 = system: HT-29
KM12 = system: KM12
M14 = system: M14
NCI-H226 = system: NCI-H226
NCI-H23 = system: NCI-H23
NCI-H460 = system: NCI-H460
NCI/ADR-RES = system: NCI/ADR-RES
RPMI-8226 = system: RPMI-8226
RXF 393 = system: RXF 393
SN12C = system: SN12C
TK-10 = system: TK-10
U-251 = system: U-251
UO-31 = system: UO-31
SF-539 = system: SF-539
SK-OV-3 = system: SK-OV-3
UACC-62 = system: UACC-62
SNB-75 = system: SNB-75

Row | SMILES | GI50 (BT-549) | GI50 (CAKI-1) | GI50 (HCT-15) | GI50 (HT-29) | GI50 (KM12) | GI50 (M14) | GI50 (NCI-H226) | GI50 (NCI-H23) | GI50 (NCI-H460) | GI50 (NCI/ADR-RES) | GI50 (RPMI-8226) | GI50 (RXF 393) | GI50 (SN12C) | GI50 (TK-10) | GI50 (U-251) | GI50 (UO-31) | GI50 (SF-539) | GI50 (SK-OV-3) | GI50 (UACC-62) | GI50 (SNB-75)
1 | NC(=O)N/N=C1\CCCCc2ccccc21 | > 10 µM (inactive) | > 10 µM (inactive) | > 10 µM | > 10 µM (inactive) | > 10 µM (inactive) | > 10 µM (inactive) | > 10 µM (inactive) | > 10 µM (inactive) | > 10 µM (inactive) | > 10 µM (inactive) | > 10 µM (inactive) | > 10 µM (inactive) | > 10 µM (inactive) | > 10 µM (inactive) | > 10 µM (inactive) | > 10 µM (inactive) | – | – | – | –
2 | CC(C)(C)/C(=N\Nc1nc2ccccc2[nH]1)c1ccccn1 | > 100 µM (inactive) | 48.2 µM (inactive) | 43.1 µM | 26.2 µM (inactive) | 86.5 µM (inactive) | 61 µM (inactive) | > 100 µM (inactive) | 82.8 µM (inactive) | > 100 µM (inactive) | 65.3 µM (inactive) | 12.9 µM (inactive) | > 100 µM (inactive) | > 100 µM (inactive) | 24.7 µM (inactive) | > 100 µM (inactive) | 42.9 µM (inactive) | > 100 µM (inactive) | > 100 µM (inactive) | > 100 µM (inactive) | –
3 | Clc1cc(Cl)c2cc3cccc[n+]3cc2c1Cl | 6.76 µM (inactive) | 6.17 µM (inactive) | 18.3 µM | 15.5 µM (inactive) | > 10 µM (inactive) | 17.5 µM (inactive) | 16.4 µM (inactive) | 16.1 µM (inactive) | 16.3 µM (inactive) | 18.3 µM (inactive) | 16.4 µM (inactive) | – | 17.9 µM (inactive) | 18.7 µM (inactive) | 16.7 µM (inactive) | 15.1 µM (inactive) | 18.3 µM (inactive) | 16.6 µM (inactive) | 15.3 µM (inactive) | 12 µM (inactive)
4 | CC[C@@]1(C)CCC2c3ccc(O)cc3CC[C@H]2C1C (stereo partly specified) | 19 µM (inactive) | 21.2 µM (inactive) | 16 µM | 18 µM (inactive) | 15.8 µM (inactive) | 15.7 µM (inactive) | – | 18 µM (inactive) | 22.7 µM (inactive) | 18.8 µM (inactive) | 19.4 µM (inactive) | 13 µM (inactive) | 18.1 µM (inactive) | 19.1 µM (inactive) | 17 µM (inactive) | 16.7 µM (inactive) | 19.9 µM (inactive) | – | 14.7 µM (inactive) | 19.9 µM (inactive)
5 | CC(=O)Nc1ccc2c(c1)[nH]c(=O)c1cc(Cl)ccc12 | 25.8 µM (inactive) | 0.51 µM (active) | 33.1 µM | 15.4 µM (inactive) | 26.5 µM (inactive) | 36.5 µM (inactive) | 10.2 µM (inactive) | 17.1 µM (inactive) | 10.4 µM (inactive) | 48.8 µM (inactive) | – | – | 43.5 µM (inactive) | 15.2 µM (inactive) | 34.3 µM (inactive) | 18.2 µM (inactive) | 40.1 µM (inactive) | 34.8 µM (inactive) | 12.3 µM (inactive) | 52.4 µM (inactive)
6 | C/C(=N\NC(=S)NCCCCNC(=S)N/N=C(\C)c1ccccn1)c1ccccc1 | 0.897 µM (active) | – | 0.484 µM | 0.531 µM (active) | 1.77 µM (inactive) | – | – | 2.73 µM (inactive) | 0.481 µM (active) | 0.914 µM (active) | 1.35 µM (inactive) | 1.02 µM (active) | 0.859 µM (active) | 0.839 µM (active) | 0.962 µM (active) | 0.635 µM (active) | 1.11 µM (active) | 2.27 µM (inactive) | 1.12 µM (active) | 0.993 µM (active)
7 | NC(=O)CN1CC(C2=C(O)CN(CC(N)=O)C2=O)=CC1=O | > 100 µM (inactive) | > 100 µM (inactive) | > 100 µM | > 100 µM (inactive) | > 100 µM (inactive) | > 100 µM (inactive) | > 100 µM (inactive) | > 100 µM (inactive) | > 100 µM (inactive) | > 100 µM (inactive) | > 100 µM (inactive) | – | > 100 µM (inactive) | > 100 µM (inactive) | > 100 µM (inactive) | 85.7 µM (inactive) | > 100 µM (inactive) | > 100 µM (inactive) | > 100 µM (inactive) | > 100 µM (inactive)
8 | CCN1CC2(COC)C(O)CC(OC)C34C5CC6(O)C(OC)C=C(C5C6OC(=O)c5ccc(OC)c(OC)c5)C(C(OC)C23)C14 (stereo unspecified) | > 7.5 µM (inactive) | > 7.5 µM (inactive) | > 7.5 µM | > 7.5 µM (inactive) | > 7.5 µM (inactive) | > 7.5 µM (inactive) | > 7.5 µM (inactive) | > 7.5 µM (inactive) | > 7.5 µM (inactive) | > 7.5 µM (inactive) | – | – | > 7.5 µM (inactive) | > 7.5 µM (inactive) | > 7.5 µM (inactive) | > 7.5 µM (inactive) | > 7.5 µM (inactive) | > 7.5 µM (inactive) | > 7.5 µM (inactive) | 4.51 µM (inactive)
9 | COc1ncnc2c1cnn2Cc1cn(COCC(O)CO)nn1 (stereo unspecified) | > 100 µM (inactive) | > 100 µM (inactive) | > 100 µM | > 100 µM (inactive) | > 100 µM (inactive) | > 100 µM (inactive) | > 100 µM (inactive) | > 100 µM (inactive) | – | > 100 µM (inactive) | > 100 µM (inactive) | – | > 100 µM (inactive) | > 100 µM (inactive) | > 100 µM (inactive) | > 100 µM (inactive) | > 100 µM (inactive) | > 100 µM (inactive) | > 100 µM (inactive) | –
10 | OC(c1cc2ccc(C(F)(F)F)cc2c2cc(C(F)(F)F)ccc12)C1CCCCN1 (stereo unspecified) | 1.92 µM (inactive) | 1.8 µM (inactive) | 1.79 µM | 2.07 µM (inactive) | 2.07 µM (inactive) | 1.88 µM (inactive) | – | 1.66 µM (inactive) | 1.95 µM (inactive) | 1.82 µM (inactive) | 2.17 µM (inactive) | – | 1.74 µM (inactive) | 1.73 µM (inactive) | 1.71 µM (inactive) | 1.41 µM (inactive) | 1.69 µM (inactive) | 2.36 µM (inactive) | 2.06 µM (inactive) | 1.29 µM (inactive)
11 | O=C1c2ccccc2-c2nc(-c3cccs3)cc3c2c1nc1ccccc13 | 22 µM (inactive) | 88.7 µM (inactive) | 15.2 µM | 21.5 µM (inactive) | 11.4 µM (inactive) | 3.27 µM (inactive) | 47.8 µM (inactive) | 11.9 µM (inactive) | 4.69 µM (inactive) | 74.6 µM (inactive) | 23.2 µM (inactive) | – | > 100 µM (inactive) | > 100 µM (inactive) | 18.6 µM (inactive) | 22.7 µM (inactive) | 24.5 µM (inactive) | > 100 µM (inactive) | 5.41 µM (inactive) | 24.9 µM (inactive)
12 | c1ccc(Cc2cccc3cc(-c4ccc(-c5ccccc5)cc4)[nH]c23)cc1 | > 100 µM (inactive) | 75.7 µM (inactive) | > 100 µM | > 100 µM (inactive) | 86.9 µM (inactive) | 52.8 µM (inactive) | > 100 µM (inactive) | > 100 µM (inactive) | > 100 µM (inactive) | > 100 µM (inactive) | 71.4 µM (inactive) | – | 96.6 µM (inactive) | > 100 µM (inactive) | 70.6 µM (inactive) | > 100 µM (inactive) | 53.8 µM (inactive) | > 100 µM (inactive) | > 100 µM (inactive) | 22.5 µM (inactive)
13 | COc1ccc(N2C(=O)/C(=C\c3cccc(Oc4ccccc4)c3)S(=O)(=O)C2c2ccccc2)cc1 (stereo unspecified) | 25.6 µM (inactive) | 68.4 µM (inactive) | 21 µM | – | 22.5 µM (inactive) | 38.8 µM (inactive) | 64.7 µM (inactive) | 28.4 µM (inactive) | 36.7 µM (inactive) | 16.2 µM (inactive) | – | 17.1 µM (inactive) | 66.4 µM (inactive) | 37.1 µM (inactive) | 50.7 µM (inactive) | 53.6 µM (inactive) | – | – | 25.1 µM (inactive) | –
14 | Cc1nc2c(=S)n(C)ncc2[nH]1 | > 100 µM (inactive) | > 100 µM (inactive) | > 100 µM | > 100 µM (inactive) | > 100 µM (inactive) | > 100 µM (inactive) | > 100 µM (inactive) | > 100 µM (inactive) | – | > 100 µM (inactive) | > 100 µM (inactive) | – | > 100 µM (inactive) | > 100 µM (inactive) | > 100 µM (inactive) | > 100 µM (inactive) | > 100 µM (inactive) | > 100 µM (inactive) | > 100 µM (inactive) | > 100 µM (inactive)
15 | CCC1c2[nH]c3ccccc3c2C[C@H]2C(=O)NC(Cc3ccccc3)C(=O)N12 (stereo partly specified) | 22.4 µM (inactive) | 35.4 µM (inactive) | 35 µM | 23.5 µM (inactive) | 24.8 µM (inactive) | 27.9 µM (inactive) | 28.4 µM (inactive) | 37.1 µM (inactive) | – | 29.8 µM (inactive) | 20.2 µM (inactive) | 22.1 µM (inactive) | 28.5 µM (inactive) | 23.7 µM (inactive) | 22.8 µM (inactive) | 30.8 µM (inactive) | – | 44.7 µM (inactive) | 17.2 µM (inactive) | –
16 | Cc1cc(C)c2c(O)cc(-c3cccc(Cl)c3)nc2n1 | 1.59 µM (inactive) | – | 0.101 µM | 0.122 µM (active) | 0.0933 µM (active) | 0.134 µM (active) | 0.391 µM (active) | 0.76 µM (active) | 0.0968 µM (active) | 0.254 µM (active) | 0.148 µM (active) | 0.179 µM (active) | 0.187 µM (active) | > 41.1 µM (inactive) | 0.206 µM (active) | 3.34 µM (inactive) | 0.119 µM (active) | 0.293 µM (active) | 0.0681 µM (active) | 0.166 µM (active)
